Measured values as given in US11180509B2, “Thiazolidone spiro pyrimidine trione compound, preparation method therefor and uses thereof” (SHANGHAI INSTITUTE OF MATERIA MEDICA, CHINESE ACADEMY OF …, priority 2017, dated 2021).
Values after ≈ are worked out from the molar mass of the structure shown.

Tests used:
Streptococcus pyogenes = test: In vitro antibacterial activity, MIC by micro broth dilution; assay type: cell-based; details: read-out: MIC Spy
From the text: (§1) The following strains isolated in clinic were used in antibacterial activity screening in vitro: five strains of methicillin-resistant Staphylococcus aureus or MRSA, five strains of methicillin-sensitive Staphylococcus aureus or MSSA, five strains of methicillin-resistant Staphylococcus epidermidis or MRSE, five strains of methicillin-sensitive Staphylococcus epidermidis or MSSE, three strains of penicillin-resistant Streptococcus pneumoniae or PRSP, and three strains of Streptococcus pyogenes.
(§2) The above strains were clinically isolated pathogenic bacteria collected in Sichuan and Beijing in December 2015. They were identified by the collection unit via a VITEK-60 automatic microbiological identification instrument, and then re-identified by conventional methods in the laboratory. Before the experiment, each strain was purified by a single colony on an agar plate, and the cells freshly cultured at 37° C. overnight were appropriately diluted for the experiment. Quality control strain was Staphylococcus aureus ATCC25923 purchased from the Clinical Testing Center of the Ministry of Health of the People's Republic of China.
(§3) Medium: MH (Mueller-Hinton, hydrolyzed casein) broth (OXOID);
(§4) Culture condition: Incubate at 35-37° C. for 16-18 h.
(§5) The MIC value of each test sample for the tested strain was determined by micro broth dilution method recommended by Performance Standards for Antimicrobial Susceptibility Testing (Twenty-Third Informational Supplement; M02-A11, M07-A9 and M11-A8, 2013) of American Clinical and Laboratory Standards Institute (CLSI).
(§6) After diluting each test sample to different concentrations in MH broth, 100 μl of each sample solution at different concentrations was pipetted into a sterilized 96-well polystyrene plate. In the first to twelfth wells, the drug solution was added, and the final drug concentrations in each well were 64, 32, 16, 8, 4, 2, 1, 0.5, 0.25, 0.125, 0.06, and 0.03 mg/L. The well without drug and without bacteria was set as blank control well. The well with bacteria and without drug was set as a bacterial growth control well.
(§7) The test bacterial solution was adjusted with physiological saline to a bacterial suspension equivalent to 0.5 Maisson turbidity standard, and diluted 1:100 with MH broth. The drug solution was added so that the final concentration of the bacterial solution was about 10^4 CFU/ml; then 100 μl of bacterial solution was pipetted into the above wells (the total volume in each well was 200 μl). The plate was sealed and placed in a 35-37° C. incubator for 18-20 h, and then the results were determined. […] When Streptococcus pneumoniae was tested, sterile defibrillated sheep blood was added into the Colombian broth culture medium at a final concentration of 5% and cultivation was conducted in a 5% CO2 and 35-37° C. incubator for 18-20 hours.

[1] = system: methicillin-resistant Staphylococcus aureus or MRSA; test: as above; assay type: cell-based; details: read-out: MIC MRSA
From the text: as §1, §2, §3, §4, §5, §6, §7

[2] = system: methicillin-resistant Staphylococcus epidermidis or MRSE; test: as above; assay type: cell-based; details: read-out: MIC MRSE
From the text: as §1, §2, §3, §4, §5, §6, §7

[3] = system: methicillin-sensitive Staphylococcus aureus or MSSA; test: as above; assay type: cell-based; details: read-out: MIC MSSA
From the text: as §1, §2, §3, §4, §5, §6, §7

[4] = system: methicillin-sensitive Staphylococcus epidermidis or MSSE; test: as above; assay type: cell-based; details: read-out: MIC MSSE
From the text: as §1, §2, §3, §4, §5, §6, §7

[5] = system: penicillin-resistant Streptococcus pneumoniae or PRSP; test: as above; assay type: cell-based; details: read-out: MIC PRSP
From the text: as §1, §2, §3, §4, §5, §6, §7

[6] = system: MRSA, MSSA, MRSE, MSSE, PRSP, and Spy; test: In vitro antibacterial activity over the whole strain panel, compared with AZD0914; assay type: cell-based; details: against MRSA
From the text: as §1, §2, §5, §6, §7

[7] = In vivo pharmacokinetics test in mice (oral); parameters: species or system CD-1 mice; details: PO 10.0 mg/kg
Procedure: Healthy female CD-1 mice were randomly divided into five groups and each group comprised three mice. The tested compound was administered orally.
0.030 mL of blood was taken from the orbit of each animal each time and anticoagulated with EDTAK2. The collection time was as follows. PO group: 15 m, 30 mi, 1 h, 2 h, 4 h, 6 h, 8 h, and 24 h after administration of the test compound. The collected blood samples were placed on ice and centrifuged within 30 minutes to separate the plasma (centrifugation conditions: 5000 rpm, 10 minutes, room temperature). The samples were stored at −80° C. before analysis.

SMILES | MIC (Streptococcus pyogenes) | MIC [1] | MIC [2] | MIC [3] | MIC [4] | MIC [5] | in vitro antibacterial activity relative to AZD0914 [6] | AUC0→t relative to AZD0914 ([7]; multiple of the AZD0914 value) | Cmax relative to AZD0914 ([7]; multiple of the AZD0914 value) | AUC0→t ([7]; plasma) | Cmax ([7]; plasma) | MRT ([7]; plasma) | Tmax ([7]; plasma) | t1/2 ([7]; plasma)
C[C@@H]1CN2c3c(cc4c(N5C(=O)SC[C@H]5C)noc4c3F)CC3(C(=O)NC(=O)NC3=O)[C@H]2[C@H](C)O1 [Compound 4, (2R,4S,4aS)-11-fluoro-2,4-dimethyl-8-((R)-4-methyl-2-oxothiazolin-3-yl)-1,2,4,4a-tetrahydro-2′H,6H-spiro[isoxazole[4,5-g][1,4]oxazine[4,3-a]quinoline-5,5′-pyrimidine]-2′,4′,6′(1′H,3′H)-trione] | 0.125 to 0.25 µg/mL (≈ 0.248 to 0.497 µM) | 0.03 to 0.5 µg/mL (≈ 0.0596 to 0.993 µM) | 0.03 to 0.125 µg/mL (≈ 0.0596 to 0.248 µM) | 0.25 to 0.5 µg/mL (≈ 0.497 to 0.993 µM) | 0.03 to 0.125 µg/mL (≈ 0.0596 to 0.248 µM) | 0.25 to 1 µg/mL (≈ 0.497 to 1.99 µM) |  |  |  |  |  |  |  | 
CC[C@H]1CN(c2noc3c(F)c4c(cc23)CC2(C(=O)NC(=O)NC2=O)[C@H]2[C@H](C)O[C@H](C)CN42)C(=O)S1 [Compound 19, (2R,4S,4aS)-8-((S)-5-ethyl-2-oxothiazol-3-yl)-11-fluoro-2,4-dimethyl-1,2,4,4a-tetrahydro-2′H,6H-spiro[isoxazole[4,5-g][1,4]oxazine[4,3-a]quinoline-5,5′-pyrimidine]-2′,4′,6′(1′H,3′H)-trione] | < 0.03 µg/mL | < 0.03 µg/mL | < 0.03 µg/mL | < 0.03 µg/mL | 0.03 to 0.06 µg/mL (≈ 0.058 to 0.116 µM) | 0.03 to 0.06 µg/mL (≈ 0.058 to 0.116 µM) | about 8 times |  |  |  |  |  |  | 
C[C@@H]1CN2c3c(cc4c(N5C(=O)S[C@@H]6CCC[C@@H]65)noc4c3F)CC3(C(=O)NC(=O)NC3=O)[C@H]2[C@H](C)O1 [Compound 21, (2R,4S,4aS)-11-fluoro-2,4-dimethyl-8-((3aS,6aR)-2-oxotetrahydro-2H-cyclopentane[d]thiazol-3(3aH)-yl)-1,2,4,4a-tetrahydro-2′H,6H-spiro[isoxazole[4,5-g][1,4]oxazine [4,3-a]quinoline-5,5′-pyrimidine]-2′,4′,6′(1′H,3′H)-trione] | 0.03 to 0.125 µg/mL (≈ 0.0567 to 0.236 µM) | 0.03 to 0.125 µg/mL (≈ 0.0567 to 0.236 µM) | 0.03 to 0.06 µg/mL (≈ 0.0567 to 0.113 µM) | 0.03 to 0.125 µg/mL (≈ 0.0567 to 0.236 µM) | 0.03 to 0.125 µg/mL (≈ 0.0567 to 0.236 µM) | 0.03 to 0.125 µg/mL (≈ 0.0567 to 0.236 µM) |  |  |  |  |  |  |  | 
C[C@@H]1CN2c3c(cc4c(N5C[C@H](CF)SC5=O)noc4c3F)CC3(C(=O)NC(=O)NC3=O)[C@H]2[C@H](C)O1 [Compound 6] | 0.03 to 0.06 µg/mL (≈ 0.0575 to 0.115 µM) | 0.03 to 1 µg/mL (≈ 0.0575 to 1.92 µM) | 0.03 to 0.06 µg/mL (≈ 0.0575 to 0.115 µM) | 0.06 to 0.125 µg/mL (≈ 0.115 to 0.24 µM) | < 0.03 µg/mL | 0.06 to 0.25 µg/mL (≈ 0.115 to 0.479 µM) |  |  |  |  |  |  |  | 
CC[C@@H]1CN(c2noc3c(F)c4c(cc23)CC2(C(=O)NC(=O)NC2=O)[C@H]2[C@H](C)O[C@H](C)CN42)C(=O)S1 [Compound 16, (2R,4S,4aS)-8-((R)-5-ethyl-2-oxothiazol-3-yl)-11-fluoro-2,4-dimethyl-1,2,4,4a-tetrahydro-2′H,6H-spiro[isoxazole[4,5-g][1,4]oxazine[4,3-a]quinoline-5,5′-pyrimidine]-2′,4′,6′(1′H,3′H)-trione] | < 0.03 µg/mL | 0.03 to 0.06 µg/mL (≈ 0.058 to 0.116 µM) | < 0.03 µg/mL | 0.03 to 0.06 µg/mL (≈ 0.058 to 0.116 µM) | < 0.03 µg/mL | 0.03 to 0.06 µg/mL (≈ 0.058 to 0.116 µM) | about 8 times | ~11 times) | ~13 times) | 8057 ± 1469 ng·h/mL | 2376 ± 411 ng/mL | 3.45 ± 0.788 h | 1.17 ± 0.764 h | 1.59 ± 0.495 h
C=C1CN(c2noc3c(F)c4c(cc23)CC2(C(=O)NC(=O)NC2=O)[C@H]2[C@H](C)O[C@H](C)CN42)C(=O)S1 [Compound 25, (2R,4S,4aS)-11-fluoro-2,4-dimethyl-8-(5-methylene-2-oxothiazol-3-yl)-1,2,4,4a-tetrahydro-2′H,6H-spiro[isoxazole[4,5-g][1,4]oxazine[4,3-a]quinoline-5,5′-pyrimidine]-2′,4′,6′(1′H, 3′H)-trione] | < 0.03 µg/mL | < 0.03 µg/mL | < 0.03 µg/mL | < 0.03 µg/mL | < 0.03 µg/mL | < 0.03 µg/mL | about 8 times |  |  |  |  |  |  | 
